This is an account of results in PMC10999543, “Identification of kinase modulators as host-directed therapeutics against intracellular methicillin-resistant Staphylococcus aureus” (Frontiers in Cellular and Infection Microbiology, 2024).

Read-outs that look alike come from different tables or passages of the source.

One data set deals with intracellular MRSA. It is filed as cell-based, Staphylococcus aureus. Conditions: for %GFP+ rep 1 / z-scoreMRSA+ rep 1: replicate 1; for %GFP+ rep 2 / z-scoreMRSA+ rep 2: replicate 2; for %GFP+ rep 3 / z-scoreMRSA+ rep 3: replicate 3; for z-scoreMRSA+ mean: mean of 3 replicates. The procedure, abridged:
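HeLa cells infected with GFP-MRSA (MOI ~6.8), gentamicin-cleared, then incubated overnight at 37°C with inhibitors plus 5 µg/ml gentamicin; DMSO as negative control, triplicates. Flow cytometry gave % GFP-positive cells and cell count (viability surrogate); hits by plate z-score (MRSA ≤ -2, HeLa count ≥ -3).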

The next data set concerns HeLa cells. Briefly: Compound screen by flow cytometry: HeLa cell count as surrogate readout of cell viability (z-scoreHeLa). The format is cell-based, human. Conditions: for cell count rep 1 / z-scoreHeLa rep 1: replicate 1; for cell count rep 2 / z-scoreHeLa rep 2: replicate 2; for cell count rep 3 / z-scoreHeLa rep 3: replicate 3; for z-scoreHeLa mean: mean of 3 replicates. The procedure, abridged:
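HeLa cells were infected with GFP-MRSA (mean MOI 6.8 ± 4.6) for 1 h, and extracellular bacteria were killed with 30 µg/ml gentamicin. Cells were then incubated overnight with kinase inhibitors in 5 µg/ml gentamicin, in triplicate against DMSO controls. Flow-cytometric cell count served as a viability surrogate, expressed as a plate z-score.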
For orientation: In flow cytometry, cells or beads pass a laser one at a time.

Setting [1] is: PKIS compound screen raw data, MRSA-infected HeLa cells.
Where [2] appears, read: Yes/No: effect without cell death.
The mark [3] stands for this setting: compound screen, MRSA-infected HeLa cells.
Where [4] appears, read: PKIS compound screen raw data, HeLa cell count.
The mark [5] stands for this setting: compound screen, HeLa cell count.
The mark [6] stands for this setting: PKIS compound screen, Yes/No call.
[7] abbreviates: PKIS compound screen, Yes/No call (effect without cell death).
[8] abbreviates: PKIS compounds raw data, MRSA-infected HeLa cells.
Setting [9] is: PKIS compounds raw data, HeLa cell count.
Setting [10] is: PKIS compound screen, MRSA-infected HeLa cells.
The mark [11] stands for this setting: PKIS compound screen, HeLa cell count.

In the case of `O=C(NCCNc1ccnc(Nc2ccc(F)cc2)n1)Nc1ccccc1F` [GSK1379880A], in the data set on intracellular MRSA (setting [1]), the “%GFP+ rep 1” value is listed as 25.7%, the “%GFP+ rep 2” value worked out at 21.6% and the “%GFP+ rep 3” value is 22.7%. Also, the effect result with intracellular MRSA (Yes/No call from z-scoreMRSA+) is listed as “No”. Further, in the data set on intracellular MRSA (setting [2]), the hit result is recorded as “No”. Besides, in the data set on intracellular MRSA (setting [3]), the “z-scoreMRSA+ mean” value came out at 0.00131, the “z-scoreMRSA+ rep 1” value came out at 0.10, the “z-scoreMRSA+ rep 2” value is reported as -0.25 and the “z-scoreMRSA+ rep 3” value amounted to 0.15. Further, in the data set with HeLa cells (setting [4]), the “cell count rep 1” value came out at 4656, the “cell count rep 2” value was 4642 and the “cell count rep 3” value was 6039. Further, the cell death entry in the data set with HeLa cells (Yes/No call from z-scoreHeLa) is recorded as “No”. Also, in the data set with HeLa cells (setting [5]), the z-scoreHeLa mean turned out to be 0.33, the “z-scoreHeLa rep 1” value is 0.22, the “z-scoreHeLa rep 2” value worked out at 0.26 and the “z-scoreHeLa rep 3” value stood at 0.51.
On to `Cn1cc(-c2ccc3c(c2)CCN3C(=O)Cc2cc(F)cc(F)c2F)c2c(N)ncnc21` [GSK2634140A], for which, in the data set on intracellular MRSA (setting [1]), the “%GFP+ rep 1” value is recorded as 26.0%, the “%GFP+ rep 2” value was 26.7% and the “%GFP+ rep 3” value worked out at 24.3%. For the same compound, the effect result in the data set on intracellular MRSA (Yes/No call from z-scoreMRSA+) is “No”. The hit entry in the data set on intracellular MRSA (setting [2]) was “No”. In the data set with intracellular MRSA (setting [3]), the “z-scoreMRSA+ mean” value is listed as 0.60, the “z-scoreMRSA+ rep 1” value is reported as 0.17, the “z-scoreMRSA+ rep 2” value was 0.99 and the “z-scoreMRSA+ rep 3” value was determined as 0.63. In addition, in the data set with HeLa cells (setting [4]), the “cell count rep 1” value is 2359, the “cell count rep 2” value was found to be 2548 and the “cell count rep 3” value worked out at 2693. Further, in the data set on HeLa cells (Yes/No call from z-scoreHeLa), the cell death result is “No”. Further, in the data set with HeLa cells (setting [5]), the z-scoreHeLa mean was -1.47, the “z-scoreHeLa rep 1” value was -1.44, the “z-scoreHeLa rep 2” value is -1.35 and the “z-scoreHeLa rep 3” value is given as -1.61.
Turning to `Cc1cccc(-c2nc(Nc3ccc4ncsc4c3)c3ccccc3n2)n1` [GW867588X], in the data set with intracellular MRSA (setting [6]), the effect result is on record as “No”. Also, the hit result with intracellular MRSA (setting [7]) is recorded as “No”. Besides, in the data set with intracellular MRSA (PKIS compound screen), the “z-scoreMRSA+ mean” value came to 0.0377, the “z-scoreMRSA+ rep 1” value is reported as -0.25, the “z-scoreMRSA+ rep 2” value came out at 0.22 and the “z-scoreMRSA+ rep 3” value turned out to be 0.14. In the data set on intracellular MRSA (setting [8]), the “%GFP+ rep 1” value was 25.8%, the “%GFP+ rep 2” value is on record as 27.2% and the “%GFP+ rep 3” value is 28.0%. Further, in the data set with HeLa cells (setting [6]), the cell death result is “No”. Moreover, in the data set with HeLa cells (PKIS compound screen), the z-scoreHeLa mean came out at 1.67, the “z-scoreHeLa rep 1” value is given as 1.09, the “z-scoreHeLa rep 2” value worked out at 1.64 and the “z-scoreHeLa rep 3” value turned out to be 2.28. Besides, in the data set on HeLa cells (setting [9]), the “cell count rep 1” value was 7867, the “cell count rep 2” value stood at 8486 and the “cell count rep 3” value was found to be 9199.
In the case of `Cn1cncc1-c1cc2c(Nc3ccc(OCc4ccccc4)cc3)ncnc2cn1` [GW281179X], in the data set with intracellular MRSA (setting [1]), the “%GFP+ rep 1” value came to 19.2%, the “%GFP+ rep 2” value amounted to 17.8% and the “%GFP+ rep 3” value came to 19.0%. In the data set with intracellular MRSA (setting [10]), the “z-scoreMRSA+ mean” value was -0.31, the “z-scoreMRSA+ rep 1” value stood at 0.11, the “z-scoreMRSA+ rep 2” value was -0.44 and the “z-scoreMRSA+ rep 3” value was -0.61. The effect result in the data set on intracellular MRSA (setting [6]) is “No”. Further, the hit result in the data set on intracellular MRSA (setting [7]) is recorded as “No”. Further, the effect result with intracellular MRSA (PKIS compound screen, Yes/No call on z-scoreMRSA+) is “No”. Besides, in the data set on intracellular MRSA (PKIS compound screen), the “z-scoreMRSA+ mean” value is -0.18, the “z-scoreMRSA+ rep 1” value is -0.25, the “z-scoreMRSA+ rep 2” value is 0.13 and the “z-scoreMRSA+ rep 3” value was -0.42. In the data set on intracellular MRSA (setting [8]), the “%GFP+ rep 1” value is 25.8%, the “%GFP+ rep 2” value was 26.7% and the “%GFP+ rep 3” value was determined as 25.0%. In addition, in the data set on HeLa cells (setting [4]), the “cell count rep 1” value came out at 28376, the “cell count rep 2” value was 11001 and the “cell count rep 3” value is 11278. In the data set with HeLa cells (setting [11]), the z-scoreHeLa mean is -1.41, the “z-scoreHeLa rep 1” value is given as -0.31, the “z-scoreHeLa rep 2” value is given as -2.45 and the “z-scoreHeLa rep 3” value was -1.49. In addition, the cell death entry in the data set with HeLa cells (setting [6]) is reported as “No”. Moreover, in the data set on HeLa cells (PKIS compound screen, Yes/No call on z-scoreHeLa), the cell death entry is listed as “No”. For the same compound, in the data set with HeLa cells (PKIS compound screen), the z-scoreHeLa mean is given as -1.83, the “z-scoreHeLa rep 1” value is reported as -2.06, the “z-scoreHeLa rep 2” value is reported as -2.65 and the “z-scoreHeLa rep 3” value is on record as -0.79. Moreover, in the data set on HeLa cells (setting [9]), the “cell count rep 1” value is given as 2614, the “cell count rep 2” value turned out to be 2008 and the “cell count rep 3” value is listed as 4357.
